Series [1] can be described thus: Gross examination of cornea, iris, conjunctivae and pupil diameter for ocular irritation in the IOP study. Type of series: in vivo, Male New Zealand white rabbits. The settings on record: rabbits, topical ocular dosing.
Description: Prior to drug administration and at each IOP determination, the cornea, iris, and conjunctivae were grossly examined for signs of irritation. Pupil diameter was also examined but detailed measurements were not made.
Series [2] deals with intraocular pressure (IOP). Kind of series: Intraocular pressure (IOP) lowering in conscious normotensive rabbits after topical dosing, applanation tonometer. It is filed as in vivo, Male New Zealand white rabbits. The settings on record: 0.5% Timolol alone (plus 50 µl vehicle 1), 50 µl topical to left eye, mean ± SEM; statistically significant vs placebo; concentration giving maximum IOP reduction with timolol alone. The method, then:
Food and water were allowed ad libitum. The rabbits were maintained on a light cycle of 12 h darkness (7 PM to 7 AM) followed by 12 h of light. Animals were conditioned to their handlers and the laboratory setting and IOP measurements for at least one 4 h period before being used to study drug effects.
Rabbits were restrained in a cloth sack approximately 2 min prior to IOP determinations. The left lower eyelid was retracted forming a pouch and 1 drop of the local anesthetic proparacaine (0.05% w/v) was irrigated over the cornea. The eyelid was then held closed over the eye about 1 min. IOP was usually monitored 1 h before dosing, at zero time (immediately prior to dosing), and hourly for the next 4 h. Only rabbits with IOP's of 18-23 mmHg and showing no sign of ocular irritation were used in drug studies.
IOP, in mmHg, was determined in triplicate with a McKag-Marg applanation tonometer and the average reading was recorded. The tonometer had previously been calibrated against direct manometric determination of IOP in living eyes of barbiturate-anesthetized rabbits. Internal calibration signals of the McKay-Marg unit were checked after every eight readings or less. […]
The data (mean I SEM) were analyzed using analysis of variance and Dunnett's or Duncan's comparisons and are expressed as peak changes in IOP. […]

Turning to `CC(C)(C)NC[C@H](O)COc1nsnc1N1CCOCC1` [Timolol, 1-[(1,1-dimethylethyl)amino]-3-[(4-morpholinyl-1,2,5-thiadiazol-3-yl)-oxy]-2-propanol], the “signs of acute ocular irritation” value in series [1] (all concentrations tested) is listed as “None”. Moreover, the Pupillary diameters entry in series [1] (examined, detailed measurements not made) is on record as “not affected”. In addition, in series [2], the “Peak Change in IOP” value is recorded as -3.0±0.4^(1) mmHg.

The values are drawn from patent EP0227818B1, “ANTIGLAUCOMA COMPOSITIONS” (SCHERING CORPORATION, priority 1985, dated 1987).
